In publication PMC9814232, “Structural insights into the potency and selectivity of covalent pan-FGFR inhibitors” (Communications Chemistry, 2022):

What was measured:
[1] = system: FGFR gatekeeper mutations; conditions: cited from earlier work
SRC [2] = biological target: T1, SRC (Gallus gallus, UniProt P00523); assay: MALDI-TOF MS covalent adduct formation, SRC; format: binding, chicken; conditions: protein:inhibitor 1:2, overnight, 4 °C
T1 construct: chicken SRC (residues 251−533); 6×His (N, cleaved yes); made in house; host or cells: E. coli BL21 (DE3), co-expressed with YOPH
Description: (§1) FGFRs, SRC and HCK were prepared as previously described[31]–[33]. […] The primers were synthesized by Tsingke Biotechnolog Co., Ltd., and the sequences were listed in Supplementary Table 2. Then plasmid was transfected into E. coli BL21 (DE3) cells and co-expressed with YOPH to get the non-phosphorylated proteins. Cells were grown in LB at 37 °C and induced for 16 h with 0.5 mM IPTG at 18 °C. Cells were harvested by centrifugation for next purification. All steps of purification were performed at 4 °C. Proteins were first purified by Ni-NTA affinity chromatography, and then 6×His tag was removed by PreScission or TEV protease. […] Anion exchange chromatography (Mono Q) and size exclusion chromatography (SEC) were exploited for further purification. The purified FGFRs proteins were stored in the buffer containing 20 mM tris-HCl pH 8.0, 150 mM NaCl, and 1 mM TCEP, while SRC and HCK proteins in the buffer containing 20 mM tris-HCl pH 8.0, 150 mM NaCl, 5% (v/v) glycerol, and 1 mM TCEP. The purified proteins were concentrated to about 5–15 mg/mL and stored at −80 °C for subsequent studies.

FGFR3 = biological target: T2, FGFR3 (Homo sapiens, UniProt P22607); assay: ADP-Glo kinase inhibition assay, FGFR3; format: biochemical; conditions: kinase activity, 10 μM ATP, n = 3
T2 construct: FGFR3 (residues 450−758); 6×His (N, cleaved yes); made in house; host or cells: E. coli BL21 (DE3), co-expressed with YOPH
Description: as §1, with “The purified proteins were concentrated to about 5–15 mg/mL and stored at −80 °C for subsequent studies.” left out
(§2) The ADP-Glo^TM Kinase Assay Kit (Part No #V9101) was purchased from Promega. […] Finally, […] was measured on a multimode plate reader (Perkin-Elmer) after the addition of detection reagent for half an hour to one hour. IC50 values were determined using a three-parameter log [Inhibitor] versus response model in GraphPad Prism software.

FGFR3(V555M) = biological target: T3, FGFR3(V555M) (Homo sapiens, UniProt P22607, V555M); assay: ADP-Glo kinase inhibition assay, FGFR3(V555M) gatekeeper mutant; format: biochemical
T3 construct: FGFR3 (residues 450−758); 6×His (N, cleaved yes); made in house; host or cells: E. coli BL21 (DE3), co-expressed with YOPH

HCK = biological target: T4, HCK (Homo sapiens, UniProt P08631); assay: ADP-Glo kinase inhibition assay, HCK; format: biochemical; conditions: kinase activity, 10 μM ATP, n = 3
T4 construct: human HCK (residues 247−526); 6×His (N, cleaved yes); made in house; host or cells: E. coli BL21 (DE3), co-expressed with YOPH
Description: as §1, with “The purified proteins were concentrated to about 5–15 mg/mL and stored at −80 °C for subsequent studies.” left out
as §2

FGFR1 = biological target: T5, FGFR1 (Homo sapiens, UniProt P11362); assay: ADP-Glo kinase inhibition assay, FGFR1; format: biochemical; conditions: kinase activity, 10 μM ATP, n = 3
T5 construct: human FGFR1 (residues 456−765); 6×His (N, cleaved yes); made in house; host or cells: E. coli BL21 (DE3), co-expressed with YOPH

FGFR2 = biological target: T6, FGFR2 (Homo sapiens, UniProt P21802); assay: ADP-Glo kinase inhibition assay, FGFR2; format: biochemical; conditions: kinase activity, 10 μM ATP, n = 3
T6 construct: FGFR2 (residues 453−770); 6×His (N, cleaved yes); made in house; host or cells: E. coli BL21 (DE3), co-expressed with YOPH

SRC(C277A) = biological target: T7, SRC(C277A) (Gallus gallus, UniProt P00523, C277A); assay: ADP-Glo kinase inhibition assay, SRC(C277A); format: biochemical, chicken; conditions: for IC50: kinase activity, ADP-Glo, 10 μM ATP, n = 3
T7 construct: chicken SRC (residues 251−533); made in house; host or cells: E. coli BL21 (DE3), co-expressed with YOPH
Description: as §1
(§3) The ADP-Glo^TM Kinase Assay Kit (Part No #V9101) was purchased from Promega. The experiments were performed according to the manufacturer’s instructions. All kinase inhibition assays were performed with optimized kinase assay buffer consisting of 40 mM Tris-HCl (pH ranging from 7.5 to 8.0), 20 mM MgCl2, 20 mM NaCl, 0.1 mg/mL BSA, 1 mM TCEP, and 4% DMSO[34]. […] Second, 5×ATP plus poly (4:1 Glu, Tyr) peptides (abcam, Part No #ab204877) were added to start the kinase reactions. The final reaction consisted of 0.04 μM kinase, 50 μM Tyr4 peptide and 10 μM ATP in kinase buffer. Then the reactions were terminated by the addition of stop buffer ADP-Glo after half an hour of incubation. […] Finally, […] was measured on a multimode plate reader (Perkin-Elmer) after the addition of detection reagent for half an hour to one hour. IC50 values were determined using a three-parameter log [Inhibitor] versus response model in GraphPad Prism software.

FGFR4(V550L) = biological target: T8, FGFR4(V550L) (Homo sapiens, UniProt P22455, V550L); assay: ADP-Glo kinase inhibition assay, FGFR4(V550L) gatekeeper mutant; format: biochemical; conditions: for IC50: kinase activity, ADP-Glo, 10 μM ATP, n = 3
T8 construct: FGFR4 (residues 445−753); 6×His (N, cleaved yes); made in house; host or cells: E. coli BL21 (DE3), co-expressed with YOPH

FGFR1(V561M) = biological target: T9, FGFR1(V561M) (Homo sapiens, UniProt P11362, V561M); assay: ADP-Glo kinase inhibition assay, FGFR1(V561M) gatekeeper mutant; format: biochemical; conditions: kinase activity, 10 μM ATP, n = 3
T9 construct: human FGFR1 (residues 456−765); 6×His (N, cleaved yes); made in house; host or cells: E. coli BL21 (DE3), co-expressed with YOPH

FGFR2(V564F) = biological target: T10, FGFR2(V564F) (Homo sapiens, UniProt P21802, V564F); assay: ADP-Glo kinase inhibition assay, FGFR2(V564F) gatekeeper mutant; format: biochemical
T10 construct: FGFR2 (residues 453−770); 6×His (N, cleaved yes); made in house; host or cells: E. coli BL21 (DE3), co-expressed with YOPH

FGFR4 = biological target: T11, FGFR4 (Homo sapiens, UniProt P22455); assay: ADP-Glo kinase inhibition assay, FGFR4; format: biochemical; conditions: kinase activity, 10 μM ATP, n = 3
T11 construct: FGFR4 (residues 445−753); 6×His (N, cleaved yes); made in house; host or cells: E. coli BL21 (DE3), co-expressed with YOPH
Description: as §1, with “The purified proteins were concentrated to about 5–15 mg/mL and stored at −80 °C for subsequent studies.” left out
as §2

YES = biological target: T12, YES (Homo sapiens, UniProt P07947); assay: ADP-Glo kinase inhibition assay, YES; format: biochemical; conditions: for IC50: kinase activity, ADP-Glo, 10 μM ATP, n = 3
T12 construct: purchased Carna 08-175
Description: as §1, §3

SRC [3] = biological target: T1, SRC; assay: ADP-Glo kinase inhibition assay, SRC; format: biochemical, chicken; conditions: for IC50: kinase activity, ADP-Glo, 10 μM ATP, n = 3
Description: as §1, §3

advanced solid tumors = conditions: pretreated patients with advanced solid tumors, phase 1 dose-escalation; cited from earlier work
[4] = kinase activity, ADP-Glo, 10 μM ATP, n = 3

T12 sequence (P07947 whole entry): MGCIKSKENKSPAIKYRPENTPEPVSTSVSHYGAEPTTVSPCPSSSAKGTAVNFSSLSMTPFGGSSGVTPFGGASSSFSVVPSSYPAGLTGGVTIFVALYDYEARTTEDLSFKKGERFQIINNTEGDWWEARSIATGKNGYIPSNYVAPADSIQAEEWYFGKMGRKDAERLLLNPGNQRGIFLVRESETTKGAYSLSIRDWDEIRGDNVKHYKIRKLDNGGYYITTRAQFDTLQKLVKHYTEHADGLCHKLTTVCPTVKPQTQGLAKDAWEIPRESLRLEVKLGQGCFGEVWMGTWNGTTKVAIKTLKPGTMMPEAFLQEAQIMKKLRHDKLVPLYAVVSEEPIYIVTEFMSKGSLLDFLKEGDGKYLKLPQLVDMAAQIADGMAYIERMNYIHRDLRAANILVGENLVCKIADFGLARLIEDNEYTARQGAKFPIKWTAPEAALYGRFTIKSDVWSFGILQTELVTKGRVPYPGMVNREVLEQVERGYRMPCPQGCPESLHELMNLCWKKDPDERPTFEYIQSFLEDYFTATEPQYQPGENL
T8 sequence (P22455 445-753 V550L): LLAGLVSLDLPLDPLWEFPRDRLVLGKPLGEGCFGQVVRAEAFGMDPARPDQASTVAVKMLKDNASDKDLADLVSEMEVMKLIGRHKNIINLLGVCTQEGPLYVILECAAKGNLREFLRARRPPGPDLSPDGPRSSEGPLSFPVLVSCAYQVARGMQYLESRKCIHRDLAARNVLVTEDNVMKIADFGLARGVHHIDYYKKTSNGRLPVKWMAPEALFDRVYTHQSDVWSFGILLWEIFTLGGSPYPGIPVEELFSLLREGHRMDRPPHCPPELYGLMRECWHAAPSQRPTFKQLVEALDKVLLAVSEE
T11 sequence (P22455 445-753): as the sequence (P22455 445-753 V550L) above, with L106V counted along it
T3 sequence (P22607 450-758 V555M): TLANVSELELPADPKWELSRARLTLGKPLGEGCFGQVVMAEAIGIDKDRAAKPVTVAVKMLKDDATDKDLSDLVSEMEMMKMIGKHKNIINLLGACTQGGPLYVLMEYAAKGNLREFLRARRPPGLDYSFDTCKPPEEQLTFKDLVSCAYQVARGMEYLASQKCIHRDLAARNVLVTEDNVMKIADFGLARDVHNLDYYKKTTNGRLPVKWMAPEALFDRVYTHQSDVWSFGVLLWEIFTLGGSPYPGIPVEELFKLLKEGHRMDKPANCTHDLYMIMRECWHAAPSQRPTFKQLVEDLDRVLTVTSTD
T4 sequence (P08631 247-526): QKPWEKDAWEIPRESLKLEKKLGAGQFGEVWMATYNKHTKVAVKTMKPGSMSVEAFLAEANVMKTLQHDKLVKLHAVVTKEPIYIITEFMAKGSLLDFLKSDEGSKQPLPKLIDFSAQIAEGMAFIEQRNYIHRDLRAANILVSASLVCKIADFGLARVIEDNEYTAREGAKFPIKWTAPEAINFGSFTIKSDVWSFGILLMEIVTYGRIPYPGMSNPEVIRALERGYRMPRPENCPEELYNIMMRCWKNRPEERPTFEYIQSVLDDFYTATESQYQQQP
T10 sequence (P21802 453-770 V564F): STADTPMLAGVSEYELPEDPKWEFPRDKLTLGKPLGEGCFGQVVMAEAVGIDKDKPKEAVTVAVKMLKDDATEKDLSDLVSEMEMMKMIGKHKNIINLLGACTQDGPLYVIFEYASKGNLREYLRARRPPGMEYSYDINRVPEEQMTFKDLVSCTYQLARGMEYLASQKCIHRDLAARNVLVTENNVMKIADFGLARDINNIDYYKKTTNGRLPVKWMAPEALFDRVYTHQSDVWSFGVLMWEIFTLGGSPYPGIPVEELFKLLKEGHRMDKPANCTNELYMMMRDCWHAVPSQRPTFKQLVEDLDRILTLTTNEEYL
T6 sequence (P21802 453-770): as the sequence (P21802 453-770 V564F) above, with F112V counted along it
T9 sequence (P11362 456-765 V561M): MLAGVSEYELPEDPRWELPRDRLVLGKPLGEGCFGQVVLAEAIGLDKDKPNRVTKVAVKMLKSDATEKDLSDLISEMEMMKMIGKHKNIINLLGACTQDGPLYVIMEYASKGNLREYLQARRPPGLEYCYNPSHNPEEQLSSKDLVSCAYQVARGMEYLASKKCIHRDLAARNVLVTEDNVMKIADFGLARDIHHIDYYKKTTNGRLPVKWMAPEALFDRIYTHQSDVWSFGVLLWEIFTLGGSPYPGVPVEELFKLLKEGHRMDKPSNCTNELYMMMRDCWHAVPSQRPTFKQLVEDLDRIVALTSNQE
T2 sequence (P22607 450-758): as the sequence (P22607 450-758 V555M) above, with M106V counted along it
T5 sequence (P11362 456-765): as the sequence (P11362 456-765 V561M) above, with M106V counted along it

CCN1CCN(c2ccc(Nc3cc(N(C)C(=O)Nc4c(Cl)c(OC)cc(OC)c4Cl)ncn3)cc2)CC1 [BGJ398, 3-(2,6-dichloro-3,5-dimethoxy-phenyl)-1-{6-[4-(4-ethyl-piperazin-1-yl)-phenylamino]-pyrimidin-4-yl}-1-methyl-urea]
potency against FGFR gatekeeper mutations (in words) [1]: little potency

C=CC(=O)Nc1ccc(CN2C(=O)N(c3cc(OC)cc(OC)c3)Cc3cnc(Nc4ccc(N5CCN(C)CC5)cc4)nc32)cc1 [FIIN-2]
mass shift of SRC protein (covalent adduct) (SRC [2]): mass shifts were observed | IC50 (FGFR3): 0.0067 µM | fold reduction of potency, FGFR3(V555M) vs wild type (FGFR3(V555M); IC50 mutant relative to wild-type FGFR3): 15 fold | IC50 (FGFR3(V555M); [4]): 0.097 µM | IC50 (HCK): > 5 µM | IC50 (FGFR1): 0.0064 µM | IC50 (FGFR2): 0.0029 µM | IC50 (SRC(C277A)): > 5 µM | potency against SRC(C277A) (in words) (SRC(C277A); kinase assay): lost their potency | fold decrease in potency, FGFR4(V550L) vs wild type (FGFR4(V550L); IC50 mutant relative to wild-type FGFR4): 12 fold | IC50 (FGFR4(V550L)): 0.255 µM | IC50 (FGFR1(V561M)): 0.216 µM | fold decrease in potency, FGFR2(V564F) vs wild type (FGFR2(V564F); IC50 mutant relative to wild-type FGFR2): 95 fold | IC50 (FGFR2(V564F); [4]): 0.276 µM | IC50 (FGFR4): 0.0211 µM | IC50 (YES): 0.365 µM | IC50 (SRC [3]): 0.33 µM

C=CC(=O)N1CCN(CCCn2c(=O)c(-c3c(Cl)c(OC)cc(OC)c3Cl)cc3cnc(NC)nc32)CC1 [PRN1371, 8-(3-(4-Acryloylpiperazin-1-yl)propyl)-6-(2,6-dichloro-3,5-dimethoxyphenyl)-2-(methylamino)pyrido[2,3-d]pyrimidin-7(8H)-one]
potency against FGFR gatekeeper mutations (in words) [1]: little potency | IC50 (HCK): > 5 µM | IC50 (SRC(C277A)): > 5 µM | IC50 (FGFR4(V550L)): > 1 µM | effect on FGFR4(V550L) (in words) (FGFR4(V550L); kinase assay): little effect | IC50 (FGFR4): 0.0313 µM | IC50 (YES): > 5 µM | potency against YES (in words) (YES; kinase assay): negligible potency | IC50 (SRC [3]): > 5 µM | potency against SRC (in words) (SRC [3]; kinase assay): negligible potency

C=CC(=O)N1CC[C@H](n2nc(C#Cc3cc(OC)cc(OC)c3)c3c(N)ncnc32)C1 [TAS-120]
most common adverse events (advanced solid tumors): hyperphosphatemia, diarrhea and constipation
